Test results: PubChem BioAssay (NCI)
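Cells were grown in 96-well plates and exposed to each compound for 48 hours at five concentrations; endpoints were interpolated linearly between bracketing concentrations, or set to the highest concentration if not reached. GI50 = concentration required for 50% inhibition of growth. The concentration for full growth arrest is given as TGI.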

What was measured:
Experiment in all cases: NCI anticancer screen, dose series, 48 h
SK-MEL-28 melanoma = test system: SK-MEL-28 melanoma
SF-539 CNS = test system: SF-539 CNS
CAKI-1 renal = test system: CAKI-1 renal
NCI-H23 lung = test system: NCI-H23 lung
HCT-15 colon = test system: HCT-15 colon
RPMI-8226 leukemia = test system: RPMI-8226 leukemia
SF-268 CNS = test system: SF-268 CNS
UO-31 renal = test system: UO-31 renal
OVCAR-4 ovarian = test system: OVCAR-4 ovarian
HOP-92 NSCLC = test system: HOP-92 NSCLC

| Structure (SMILES) | TGI (SK-MEL-28 melanoma) | TGI (SF-539 CNS) | TGI (CAKI-1 renal) | TGI (NCI-H23 lung) | TGI (HCT-15 colon) | TGI (RPMI-8226 leukemia) | TGI (SF-268 CNS) | TGI (UO-31 renal) | TGI (OVCAR-4 ovarian) | TGI (HOP-92 NSCLC) | GI50 (SK-MEL-28 melanoma) | GI50 (HOP-92 NSCLC) | GI50 (SF-539 CNS) | GI50 (OVCAR-4 ovarian) | GI50 (NCI-H23 lung) | GI50 (HCT-15 colon) | GI50 (RPMI-8226 leukemia) | GI50 (SF-268 CNS) | GI50 (UO-31 renal) |
| --- | --- | --- | --- | --- | --- | --- | --- | --- | --- | --- | --- | --- | --- | --- | --- | --- | --- | --- | --- |
| N#CC(C#N)=Cc1cccc(Oc2ccccc2)c1 | 20 µM | 35.1 µM | 50.4 µM | 22 µM | > 100 µM | 62.5 µM | 40.6 µM | 30.8 µM |  |  |  |  |  |  |  |  |  |  |  |
| COc1ccc(/C=C/C(=O)c2sc(-n3nc(-c4ccccc4)cc3-c3ccccc3)nc2C)cc1OC | > 100 µM | 81.1 µM | > 100 µM | > 100 µM | > 100 µM | 70 µM | 84.2 µM | > 100 µM | > 100 µM |  |  |  |  |  |  |  |  |  |  |
| CC1(C)[C@@H]2C[C@H]1c1cnc(-c3ccccn3)cc1[C@H]2C(O)[C@@H]1c2cc(-c3ccccn3)ncc2[C@H]2C[C@@H]1C2(C)C (stereo partly specified) | 29.7 µM |  | 2.43 µM | 2.79 µM | 25.2 µM | 1.93 µM | 16.6 µM | 0.445 µM | > 9.95 µM | 21.8 µM |  |  |  |  |  |  |  |  |  |
| Brc1ccc2c(c1)-c1nc3c(cc1CC2)CCc1ccc(Br)cc1-3 | > 100 µM |  | > 100 µM | > 100 µM | > 100 µM | > 100 µM | > 100 µM | > 100 µM | > 100 µM | > 100 µM |  |  |  |  |  |  |  |  |  |
| CC/C=C\C/C=C\C/C=C\CCCCCCCC(=O)OC(COC(=O)CCCCCCCCCCCCCCCCC)COC1OC(CO)C(O)C(O)C1O (stereo unspecified) | > 25 µM |  | > 25 µM | > 25 µM | > 25 µM | > 25 µM | > 25 µM | > 25 µM | > 25 µM | > 25 µM |  |  |  |  |  |  |  |  |  |
| NC(CCSCC(F)F)C(=O)O (stereo unspecified) | > 100 µM | > 100 µM | > 100 µM | > 100 µM | > 100 µM |  | > 100 µM | > 100 µM | > 100 µM | > 100 µM |  |  |  |  |  |  |  |  |  |
| CC(C)Cc1c(C#N)c(C#N)c(N)n1Cc1ccccc1 |  | > 100 µM | > 100 µM | > 100 µM | > 100 µM | > 100 µM | > 100 µM | > 100 µM | > 100 µM | > 100 µM |  |  |  |  |  |  |  |  |  |
| COc1cc(-c2c3c(cc4c2OCO4)[C@@H](Nc2ccc4c(c2)Cc2cc(N[C@@H]5c6cc7c(cc6C(c6cc(OC)c(O)c(OC)c6)[C@H]6C(=O)OC[C@H]56)OCO7)ccc2-4)[C@H]2COC(=O)[C@@H]2C3)cc(OC)c1O (stereo partly specified) | 70 µM | 19 µM | 88.9 µM | > 100 µM | > 100 µM | > 100 µM | > 100 µM | > 100 µM |  | 97.3 µM |  |  |  |  |  |  |  |  |  |
| Nc1nc(Nc2ccc(OCc3cccc(F)c3)cc2)c2c(n1)[nH]c1ccc(O)cc12 | 5.59 µM | 3.31 µM |  | 22.2 µM | 16.2 µM | 5.55 µM | 12.2 µM | 4.12 µM | 6.04 µM | 7.98 µM | 2.26 µM | 2.37 µM | 1.79 µM | 2.18 µM | 4.12 µM | 3.61 µM | 2.16 µM | 3.1 µM | 1.75 µM |
| NC(=O)NC(=NCc1ccccc1)NCc1ccccc1 | > 100 µM | > 100 µM | > 100 µM | > 100 µM | > 100 µM |  | > 100 µM | > 100 µM | > 100 µM | > 100 µM |  |  |  |  |  |  |  |  |  |
| CCOC1NC(=O)c2ccccc21 (stereo unspecified) | > 100 µM | > 100 µM |  | > 100 µM | > 100 µM | > 100 µM | > 100 µM | > 100 µM | > 100 µM | > 100 µM |  |  |  |  |  |  |  |  |  |
| O=C(NCCCNCCCCNCCCNC(=O)C(F)(F)F)C(F)(F)F | > 100 µM | > 100 µM | 40.4 µM | > 100 µM | > 100 µM | > 100 µM | > 100 µM | > 100 µM | > 100 µM |  |  |  |  |  |  |  |  |  |  |
| C[C@@H]1C(=O)CC2(O)[C@@]13C[C@@H](OC(=O)[C@@H]3O)[C@@H](C)[C@@]21COC1=O (stereo partly specified) | > 100 µM | > 100 µM |  | > 100 µM | > 100 µM | > 100 µM | > 100 µM | > 100 µM | > 100 µM |  |  |  |  |  |  |  |  |  |  |
| O=C1NN=C(c2c[nH]c3ccccc23)CC1NCc1ccccc1 (stereo unspecified) | > 100 µM | > 100 µM | > 100 µM | > 100 µM | > 100 µM | > 100 µM | > 100 µM | > 100 µM |  | > 100 µM |  |  |  |  |  |  |  |  |  |
| O=C(CN=C(CN(c1ccccc1)c1ccccc1)Oc1c(Cl)cc(Cl)cc1Cl)n1cnc2ccccc21 | > 100 µM | > 100 µM |  | > 100 µM | > 100 µM | > 100 µM | > 100 µM |  | > 100 µM | > 100 µM |  |  |  |  |  |  |  |  |  |
| NC(=S)N=Nc1c(O)cc(Nc2ccc(Cl)cc2Cl)c2ccccc12 | > 100 µM | 53.4 µM | 38.6 µM | 97.7 µM | > 100 µM |  | > 100 µM | > 100 µM | > 100 µM | 52.4 µM |  |  |  |  |  |  |  |  |  |
| COC(=O)C1=C(C(=O)OC)C2(C)CCC(=O)C1O2 (stereo unspecified) | > 10 µM | > 10 µM | > 10 µM | > 10 µM | > 10 µM | > 10 µM | > 10 µM | > 10 µM | > 10 µM |  |  |  |  |  |  |  |  |  |  |
| NS(=O)(=O)c1nnc(NSc2ccc([N+](=O)[O-])cc2)s1 | > 100 µM |  | > 100 µM | > 100 µM | > 100 µM | > 100 µM | > 100 µM | > 100 µM | > 100 µM | > 100 µM |  |  |  |  |  |  |  |  |  |
| COC(=O)c1cc(C(=O)OC)cc(-c2ccc3c(c2)-c2nc4c(c(-c5ccc(OC)cc5)c2CC3)CCc2ccc(-c3cc(C(=O)OC)cc(C(=O)OC)c3)cc2-4)c1 | > 100 µM |  | > 100 µM | > 100 µM | > 100 µM | > 100 µM | > 100 µM | > 100 µM | > 100 µM | > 100 µM |  |  |  |  |  |  |  |  |  |
| CCOC(=O)C(NC(=O)c1ccc(N=NN(C)C)cc1)C(C)C (stereo unspecified) | > 100 µM | > 100 µM | > 100 µM | > 100 µM | > 100 µM | > 100 µM | > 100 µM | > 100 µM | > 100 µM |  |  |  |  |  |  |  |  |  |  |
| Cc1ncc([N+](=O)[O-])n1CCNC(=O)CCCCn1ccnc1[N+](=O)[O-] |  | > 100 µM | > 100 µM | > 100 µM | > 100 µM |  | > 100 µM | > 100 µM |  |  |  |  |  |  |  |  |  |  |  |
| O=c1oc2ccccc2c2nc3ccccc3cc12 | > 100 µM | 27.4 µM | > 100 µM | > 100 µM | > 100 µM | > 100 µM |  | > 100 µM | 47.7 µM | 90.1 µM |  |  |  |  |  |  |  |  |  |
